These results are taken from article PMC6115017, “High-content imaging assay to evaluate Toxoplasma gondii infection and proliferation: A multiparametric assay to screen new compounds” (PLoS ONE, 2018).

Experiment [1] has as its system T. gondii proliferation (RH-YFP2 parasites in HFF). As to the kind of experiment: High Content Imaging (HCI) assay of T. gondii proliferation in HFF. The note with it: for inhibition at 10 µM / IC50 / inhibition at 20 µM: Toxoplasma gondii; for SI selectivity index: CV50/IC50: CV50 (HFF)/IC50 (T. gondii); for Parasite proliferation inhibition (PPI): tested at 10 μM, HFF infected with T. gondii, normalised to DMSO and 20 μM pyrimethamine.
Procedure: The parasites were collected just after host cell lysis, centrifuged at 800 g for 5 min, suspended in D10 medium, and counted.
A pyrimethamine (Sigma-Aldrich) stock solution was prepared at 10 mM in DMSO and was used at the final concentration of at 20 μM as a positive control for anti-Toxoplasma activity. Forty-six molecules were tested to determine their anti-Toxoplasma activity. Each molecule was prepared as a 10 mM stock solution in DMSO and tested at 10 μM. The hits were then further tested at the dilutions 0.01 to 100 μM.
(§1) Cells were seeded at a density of 1.10^4 cells per well into 96-well plates, and allowed to grow for 48 h at 37°C and 5% CO2 to obtain sub-confluent HFF monolayers. Cells were then infected with 4.10^4 parasites per well. The plates were centrifuged for 1 min at 200 g and placed at 37°C, 5% CO2, for 2 h. After 3 washes in PBS, infected cells were incubated at 37°C, 5% CO2, for 30 hours with 200 μL of DMEM complete medium alone or supplemented with anti-Toxoplasma molecules, i.e. the reference drug pyrimethamine, or the tested molecules. These tested drugs were incubated at 10 μM in screening hit assays.
Imaging of 96-well plates was performed using a high content imaging system (Olympus ScanR). […] Twenty fields per well were imaged.
The acquired images were analyzed using the ScanR analysis software. This analysis aimed to identify the parasitophorous vacuoles (V), the parasites’ nuclei (P) and host cells’ nuclei (C).
A fixed threshold was set up (Fig 1C) and a watershed algorithm was applied to split apart two vacuoles that associated with one another (Fig 1C, white arrow). A binary mask was obtained (Fig 1D) and objects on the image border were excluded. Segmentation of the parasites’ nuclei (Fig 1E–1G, arrowhead) was performed with the Hoechst fluorescence pixels (Fig 1E). In order to properly separate parasites’ nuclei one from another, an important rolling ball background subtraction filter was applied (5 pixels). Both the brightness and the contrast of filtered images were adjusted manually. Parasites were selected with an edge segmentation algorithm with a minimum object size of 10 pixels and a maximum object size of 30 pixels (Fig 1F). The obtained binary image allowed a clear detection of the parasites (Fig 1G).
The vacuole mask was merged with that of the parasites to identify parasites inside their parasitophorous vacuole and to exclude extracellular parasites or host cell nuclei (Fig 1H).

The subject of experiment [2] is Human foreskin fibroblasts (HFF) host cells. The experiment is described as follows: Host cell viability in the HCI assay (host cell nuclei count). To be noted: 0.037 to 81 μM, 30 h.
Procedure: as §1
• the T. gondii infection rate (V/C), calculated as the ratio between the number of parasitophorous vacuoles per well (V) divided by the number of host cells per well (C); • the T. gondii proliferation index (P/V), calculated as the ratio between the number of parasites per well (P) divided by the number of parasitophorous vacuoles per well; • the intra-vacuolar distribution of parasites (percentage of parasitophorous vacuoles containing either 1, 2, 4, or 8 parasites); • the parasite proliferation inhibition (PPI), calculated with the following formula: PPI=(1−((P/V[mol]−P/V[Pyr])/(P/V[DMSO]−P/V[Pyr])))x100 where P/V[Pyr] was the average proliferation rate of Toxoplasma in the presence of 20 μM pyrimethamine, P/V[DMSO], the average proliferation rate of Toxoplasma in the presence of DMSO only and P/V[mol], the average proliferation rate of Toxoplasma in the presence of the tested molecule; • the cell viability (CV): (C [mol] / C[DMSO])x100, where C[mol] was the number of host cell nuclei per well containing the tested molecule and C[DMSO], the number of host cell nuclei per well containing the DMSO control.
A selectivity index activity (SI) was calculated as SI = CV50/IC50.
For a further experiment, the system named is RH-YFP2 parasites in HFF. As to the kind of experiment: [3H]-uracil incorporation assay of T. gondii proliferation. The class given is cell-based. The note with it: Toxoplasma gondii; 20 μM pyrimethamine, 30 h in HFF; 100% proliferation = without pyrimethamine; 3 experiments; read-out: inhibition of parasite proliferation as determined by [3H]-uracil incorporation assay. The protocol: The intracellular growth of RH-YFP2 parasites in HFF was monitored by selective incorporation of [^3H]-uracil, as previously described. […] After several washes to eliminate extracellular parasites, infected cells were cultured for 30 h with […] of [^3H]-uracil per well. Monolayers were washed 3 times in phosphate buffered saline (PBS), disrupted with 500 μL of lysis/scintillation solution (Optiphase Supermix, Perkin Elmer, France) and their radioactivity was measured by liquid scintillation counting using a Wallac MicroBeta TriLux (Perkin Elmer) calibrated for [^3H]-uracil. Two experimental replicates were performed in each of the 3 separate experiments.

The test system of experiment [3] is Toxoplasma gondii parasites in HFF. As to the kind of experiment: Manual microscopic counting of T. gondii proliferation. To be noted: 30 h, read-out: inhibition of parasite proliferation as determined by manual microscopic observations.
Procedure: as §1
Parasitophorous vacuoles, parasites and host cells were manually counted on the set of images provided by the Olympus IX81 microscope. Three different experiments were performed.
After 30 h of parasite culture in HFF, the total numbers of parasitophorous vacuoles and parasites were counted in wells with or without 20 μM pyrimethamine from 3 different experiments. The 100% proliferation corresponds to the number of parasites per well without pyrimethamine.
Setting [4] is: 30 h, read-out: Parasite proliferation inhibition (PPI).
The mark [5] stands for this setting: 30 h, read-out: IC50: concentration to inhibit 50% of T. gondii proliferation.

Like-named read-outs stand apart in the source and are kept apart here. Some results are limits rather than exact numbers.

Regarding `O=C1/C(=C/c2ccc(Br)cc2)Oc2cc(O)cc(O)c21` [AU7], the inhibition at 10 µM in experiment [1] (setting [4]) was found to be 0%.
The same measure, in the same setting: to `COc1cccc(OC)c1/C=C/C(=O)c1c(OC)cccc1OC` [CH1] belongs 0%; to `COc1cccc(OC)c1/C=C/C(=O)c1ccccc1` [CH4], 29%.
Same read-out and setting: to `COc1ccc(C(=O)/C=C/c2ccc(OC)c(OC)c2)c(O)c1` [CH5] belongs 3%.
With `COc1ccc(C(=O)/C=C/c2cc(OC)c(OC)c(OC)c2)c(O)c1` [CH9], in experiment [1], the “SI selectivity index: CV50/IC50” value is on record as over 12.3. Also, the IC50 in experiment [1] (setting [5]) is 6600 ± 1500 nM. Moreover, the inhibition at 10 µM in experiment [1] (setting [4]) was determined as 93%. Also, the “Parasite proliferation inhibition (PPI)” value in experiment [1] (30 h) was “high proliferation inhibition activity”. Moreover, the “CV50: concentration to inhibit the viability of 50% of host cells” value in experiment [2] is over 81 µM.
Consider `COc1cc(/C=C/C(=O)c2ccc(OC)cc2O)cc(OC)c1` [CH12], for which the inhibition at 10 µM in experiment [1] (setting [4]) was determined as 73%.
On to `COc1ccc(-c2nnc(-c3ccccc3OC)o2)cc1` [DO3], for which the “SI selectivity index: CV50/IC50” value in experiment [1] is listed as over 3. Moreover, in experiment [1] (setting [5]), the IC50 was 27700 ± 6200 nM. Also, the inhibition at 10 µM in experiment [1] (setting [4]) is 81%. For the same compound, in experiment [1] (30 h), the “Parasite proliferation inhibition (PPI)” value is “high proliferation inhibition activity”. Further, in experiment [2], the “CV50: concentration to inhibit the viability of 50% of host cells” value is over 81 µM.
Consider `COc1ccc(-c2nnc(-c3ccc(OC)cc3)o2)cc1` [DO4], for which the inhibition at 10 µM in experiment [1] (setting [4]) was found to be 0%.
Same read-out and setting: to `COc1ccccc1-c1nnc(-c2ccccc2)o1` [DO6] belongs 0%; to `COc1ccc(-c2nnc(-c3ccccc3)o2)c(OC)c1` [DO8], 0%; to `c1ccc(-c2nnc(-c3ccccc3)o2)cc1` [DO9], 0%.
On the same count and under the same terms, to `Oc1ccc(-c2nnc(-c3ccccc3)o2)cc1` [DO10] belongs 0%; to `Oc1ccc(-c2nnc(-c3ccccc3)o2)c(O)c1` [DO11], 0%.
Same read-out and setting: the figure for `Oc1ccccc1-c1nnc(-c2ccccc2)o1` [DO12] is 5%; for `Oc1ccc(-c2nnc(-c3ccc(O)cc3O)o2)cc1` [DO13] it is 0%.
Regarding `Oc1ccc(-c2nnc(-c3ccc(O)cc3)o2)cc1` [DO14], the inhibition at 10 µM in experiment [1] (setting [4]) was determined as 0%.
Regarding `CCc1nc(N)nc(N)c1-c1ccc(Cl)cc1` [pyrimethamine, reference compound], the inhibition at 20 µM with RH-YFP2 parasites in HFF was found to be 43.2%; in experiment [1] (setting [4]), 100%; in experiment [1] (30 h, read-out: inhibition of parasite proliferation as determined by HCI), 25.2%; in experiment [3], 25%. Further, the “SI selectivity index: CV50/IC50” value in experiment [1] is recorded as over 202. The IC50 amounted to 600 nM in experiment [1] (24 h, read-out: IC50 of pyrimethamine, reproducibility); 400 ± 30 nM in experiment [1] (setting [5]); 440 nM in experiment [1] (72 h, read-out: IC50 of pyrimethamine, reproducibility). Besides, in experiment [2], the “CV50: concentration to inhibit the viability of 50% of host cells” value is over 81 µM.
